Key:
Assay in all cases: relative viability (nuclei count vs DMSO), 5 days (fraction); higher = more cells survive
NCI-H3122 = tested on: NCI-H3122
Method in brief: (§1)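 Cells from lung cancer lines were seeded into 1536-well plates and, one day later, dosed by pin tool. Treatments were either a single drug or a fixed dose of an anchor drug with five library-drug doses (not always all listed) in √10 steps. After 5 days, nuclei were stained in a one-step fixation (final 0.05% Triton X-100, 1% formaldehyde, 1 ug/ml Hoechst) and counted on 4× images, and relative viability is the treated-to-vehicle nuclei ratio, as the median of duplicate plates.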

NCI-H1666 = tested on: NCI-H1666
Method in brief: as §1

LXF-289 = tested on: LXF-289
Method in brief: as §1

NCI-H1915 = tested on: NCI-H1915
Method in brief: as §1

NCI-H322M = tested on: NCI-H322M
Method in brief: as §1

NCI-H358 = tested on: NCI-H358
Method in brief: as §1

HCC-15 = tested on: HCC-15
Method in brief: as §1

NCI-H1975 = tested on: NCI-H1975
Method in brief: as §1

EMC-BAC-2 = tested on: EMC-BAC-2
Method in brief: as §1

EPLC-272H = tested on: EPLC-272H
Method in brief: as §1

HOP-62 = tested on: HOP-62
Method in brief: as §1

ABC-1 = tested on: ABC-1
Method in brief: as §1

NCI-H1993 = tested on: NCI-H1993
Method in brief: as §1

CAL-12T = tested on: CAL-12T
Method in brief: as §1

COR-L 105 = tested on: COR-L 105
Method in brief: as §1

NCI-H2085 = tested on: NCI-H2085
Method in brief: as §1

NCI-H2023 = tested on: NCI-H2023
Method in brief: as §1

NCI-H2126 = tested on: NCI-H2126
Method in brief: as §1

NCI-H1755 = tested on: NCI-H1755
Method in brief: as §1

UMC-11 = tested on: UMC-11
Method in brief: as §1

HCC-78 = tested on: HCC-78
Method in brief: as §1

## CC1(C)CCC(c2ccc(Cl)cc2)=C(CN2CCN(c3ccc(C(=O)NS(=O)(=O)c4ccc(N[C@H](CCN5CCOCC5)CSc5ccccc5)c(S(=O)(=O)C(F)(F)F)c4)cc3)CC2)C1 [Navitoclax] + CS(=O)(=O)CCNCc1ccc(-c2ccc3ncnc(Nc4ccc(OCc5cccc(F)c5)c(Cl)c4)c3c2)o1 [Lapatinib] (partner 2 µM)
NCI-H3122; first compound 0.005 µM
  relative viability: 0.998
NCI-H3122; first compound 0.01581 µM
  relative viability: 0.991
NCI-H3122; first compound 0.05 µM
  relative viability: 1.03
NCI-H3122; first compound 0.1581 µM
  relative viability: 0.892
NCI-H3122; first compound 0.5 µM
  relative viability: 1.02
NCI-H1666; first compound 0.005 µM
  relative viability: 0.584
NCI-H1666; first compound 0.01581 µM
  relative viability: 0.694
NCI-H1666; first compound 0.05 µM
  relative viability: 0.524
NCI-H1666; first compound 0.1581 µM
  relative viability: 0.579
NCI-H1666; first compound 0.5 µM
  relative viability: 0.425
LXF-289; first compound 0.005 µM
  relative viability: 0.9
LXF-289; first compound 0.01581 µM
  relative viability: 0.91
LXF-289; first compound 0.05 µM
  relative viability: 0.864
LXF-289; first compound 0.1581 µM
  relative viability: 0.901
LXF-289; first compound 0.5 µM
  relative viability: 0.902
NCI-H1915; first compound 0.005 µM
  relative viability: 0.915
NCI-H1915; first compound 0.01581 µM
  relative viability: 0.953
NCI-H1915; first compound 0.05 µM
  relative viability: 0.819
NCI-H1915; first compound 0.1581 µM
  relative viability: 0.862
NCI-H1915; first compound 0.5 µM
  relative viability: 0.868
NCI-H322M; first compound 0.005 µM
  relative viability: 0.672
NCI-H322M; first compound 0.01581 µM
  relative viability: 0.603
NCI-H322M; first compound 0.05 µM
  relative viability: 0.625
NCI-H322M; first compound 0.1581 µM
  relative viability: 0.535
NCI-H322M; first compound 0.5 µM
  relative viability: 0.576
NCI-H358; first compound 0.005 µM
  relative viability: 0.481
NCI-H358; first compound 0.01581 µM
  relative viability: 0.601
NCI-H358; first compound 0.05 µM
  relative viability: 0.397
NCI-H358; first compound 0.1581 µM
  relative viability: 0.482
NCI-H358; first compound 0.5 µM
  relative viability: 0.583
HCC-15; first compound 0.005 µM
  relative viability: 0.814
HCC-15; first compound 0.01581 µM
  relative viability: 0.946
HCC-15; first compound 0.05 µM
  relative viability: 0.713
HCC-15; first compound 0.1581 µM
  relative viability: 0.813
HCC-15; first compound 0.5 µM
  relative viability: 0.836
NCI-H1975; first compound 0.005 µM
  relative viability: 0.859
NCI-H1975; first compound 0.01581 µM
  relative viability: 1.02
NCI-H1975; first compound 0.05 µM
  relative viability: 1.23
NCI-H1975; first compound 0.1581 µM
  relative viability: 0.8
NCI-H1975; first compound 0.5 µM
  relative viability: 0.893
EMC-BAC-2; first compound 0.005 µM
  relative viability: 0.895
EMC-BAC-2; first compound 0.01581 µM
  relative viability: 0.893
EMC-BAC-2; first compound 0.05 µM
  relative viability: 0.884
EMC-BAC-2; first compound 0.1581 µM
  relative viability: 0.963
EMC-BAC-2; first compound 0.5 µM
  relative viability: 0.943
EPLC-272H; first compound 0.005 µM
  relative viability: 0.904
EPLC-272H; first compound 0.1581 µM
  relative viability: 0.906
EPLC-272H; first compound 0.5 µM
  relative viability: 0.881
HOP-62; first compound 0.005 µM
  relative viability: 0.924
HOP-62; first compound 0.01581 µM
  relative viability: 1.12
HOP-62; first compound 0.05 µM
  relative viability: 0.777
HOP-62; first compound 0.1581 µM
  relative viability: 0.947
HOP-62; first compound 0.5 µM
  relative viability: 0.972
ABC-1; first compound 0.005 µM
  relative viability: 1.1
ABC-1; first compound 0.01581 µM
  relative viability: 1.46
ABC-1; first compound 0.05 µM
  relative viability: 1.09
ABC-1; first compound 0.1581 µM
  relative viability: 1.19
ABC-1; first compound 0.5 µM
  relative viability: 1.05
NCI-H1993; first compound 0.005 µM
  relative viability: 0.849
NCI-H1993; first compound 0.01581 µM
  relative viability: 0.855
NCI-H1993; first compound 0.05 µM
  relative viability: 0.756
NCI-H1993; first compound 0.1581 µM
  relative viability: 0.795
NCI-H1993; first compound 0.5 µM
  relative viability: 0.883
CAL-12T; first compound 0.005 µM
  relative viability: 0.751
CAL-12T; first compound 0.01581 µM
  relative viability: 0.504
CAL-12T; first compound 0.05 µM
  relative viability: 0.589
CAL-12T; first compound 0.1581 µM
  relative viability: 0.738
CAL-12T; first compound 0.5 µM
  relative viability: 0.637
COR-L 105; first compound 0.005 µM
  relative viability: 0.335
COR-L 105; first compound 0.01581 µM
  relative viability: 0.407
COR-L 105; first compound 0.05 µM
  relative viability: 0.307
COR-L 105; first compound 0.1581 µM
  relative viability: 0.282
COR-L 105; first compound 0.5 µM
  relative viability: 0.333
NCI-H2085; first compound 0.005 µM
  relative viability: 0.754
NCI-H2085; first compound 0.01581 µM
  relative viability: 0.895
NCI-H2085; first compound 0.05 µM
  relative viability: 0.692
NCI-H2085; first compound 0.1581 µM
  relative viability: 0.822
NCI-H2085; first compound 0.5 µM
  relative viability: 0.814
NCI-H2023; first compound 0.005 µM
  relative viability: 0.953
NCI-H2023; first compound 0.01581 µM
  relative viability: 1.13
NCI-H2023; first compound 0.05 µM
  relative viability: 0.685
NCI-H2023; first compound 0.1581 µM
  relative viability: 0.927
NCI-H2023; first compound 0.5 µM
  relative viability: 0.816
NCI-H2126; first compound 0.005 µM
  relative viability: 0.784
NCI-H2126; first compound 0.01581 µM
  relative viability: 0.757
NCI-H2126; first compound 0.05 µM
  relative viability: 0.739
NCI-H2126; first compound 0.1581 µM
  relative viability: 0.729
NCI-H2126; first compound 0.5 µM
  relative viability: 0.702
NCI-H1755; first compound 0.005 µM
  relative viability: 1.04
NCI-H1755; first compound 0.01581 µM
  relative viability: 1.13
NCI-H1755; first compound 0.05 µM
  relative viability: 0.836
NCI-H1755; first compound 0.1581 µM
  relative viability: 0.984
NCI-H1755; first compound 0.5 µM
  relative viability: 1.02
UMC-11; first compound 0.005 µM
  relative viability: 0.862
UMC-11; first compound 0.01581 µM
  relative viability: 1.02
UMC-11; first compound 0.05 µM
  relative viability: 0.747
UMC-11; first compound 0.1581 µM
  relative viability: 0.858
UMC-11; first compound 0.5 µM
  relative viability: 0.481
HCC-78; first compound 0.005 µM
  relative viability: 0.704
HCC-78; first compound 0.01581 µM
  relative viability: 0.987
HCC-78; first compound 0.1581 µM
  relative viability: 0.75
HCC-78; first compound 0.5 µM
  relative viability: 0.76

Source: the supplement of paper PMC10307832
